This passage reports Ki and IC50 results from ChEMBL document CHEMBL1159181, “Short and unexpectedly potent difluorostatone type inhibitors of HIV-1 protease” (Bioorg Med Chem Lett, 1993).

The Ki is the equilibrium dissociation constant of an inhibitor or competing ligand from its target. What is called IC50 is the midpoint of a concentration-inhibition curve.

The target of the assay is Human immunodeficiency virus type 1 protease (Human immunodeficiency virus 1, UniProt Q72874). In words: Tested for inhibitory activity against the recombinant HIV-1 protease.

Regarding `CC(C)C(NC(=O)OCc1ccccc1)C(=O)NC(Cc1ccccc1)C(=O)C(F)(F)C(=O)NCc1ccccc1` (stereo not drawn), the Ki came to 0.001 µM.
With `C[Si](C)(C)CC(NC(=O)OCc1ccccc1)C(=O)C(F)(F)C(=O)NCc1ccccc1` (stereo not drawn), the Ki amounted to 12 µM.
Take `O=C(Cc1ccccc1)NCC(F)(F)C(=O)C(Cc1ccccc1)NC(=O)OCc1ccccc1` (stereo not drawn): the Ki came to 60000 µM.
`CC(C)(C)OC(=O)NC(Cc1ccccc1)C(=O)C(F)(F)C(=O)NCc1ccccc1` (stereo not drawn): the IC50 is 0.004 µM.
Take `CC(C)C(NC(=O)OCc1ccccc1)C(=O)NC(Cc1ccccc1)C(=O)C(F)(F)C(=O)CCc1ccccc1` (stereo not drawn): the IC50 stood at 0.1 µM.
As to `CC(C)(C)[C@H](NC(=O)OCc1ccccc1)C(=O)NC(Cc1ccccc1)C(=O)C(F)(F)C(=O)NCc1ccccc1` (stereo partly drawn), the IC50 came out at 0.027 µM.
Regarding `CN(Cc1ccccc1)C(=O)C(=O)C(=O)C(Cc1ccccc1)NC(=O)OCc1ccccc1` (stereo not drawn), the Ki was found to be 5000 µM.
In the case of `CON[C@H](C(=O)N[C@H](C(=O)NC(=O)C(F)(F)C(=O)[C@H](Cc1ccccc1)NC(=O)[C@H](C)NC(=O)[C@H](C)NC(=O)[C@H](CO)NC(=O)OC(C)(C)C)C(C)C)C(C)C`, the Ki came to 160 µM.
For `CC(C)(C)CNC(=O)C(F)(F)C(=O)C(Cc1ccccc1)NC(=O)OCc1ccccc1` (stereo not drawn), the Ki was 0.65 µM.
Same read-out and setting: then `CCC[C@H](NC(=O)OCc1ccccc1)C(=O)NC(Cc1ccccc1)C(=O)C(F)(F)C(=O)NCc1ccccc1` (stereo partly drawn), with 400 µM.
As to `CC(C)C(NC(=O)OCc1ccccc1)C(=O)NC(Cc1ccccc1)C(O)C(F)(F)C(=O)NCc1ccccc1` (stereo not drawn), the IC50 stood at 5000 µM.
As for `CC(C)(C)OC(=O)NC(C[Si](C)(C)C)C(=O)C(F)(F)C(=O)NCc1ccccc1` (stereo not drawn), the Ki stood at 2.5 µM.
Consider `O=C(NC(Cc1ccccc1)C(=O)C(F)(F)C(=O)NCc1ccccc1)OCc1ccccc1` (stereo not drawn), for which the Ki is 0.0006 µM.
As to `CC(C)(C)OC(=O)NC(Cc1ccc(O)cc1)C(=O)C(F)(F)C(=O)NCc1ccccc1` (stereo not drawn), the Ki amounted to 0.0003 µM.
For the compound `NC(=O)C(F)(F)C(=O)C(Cc1ccccc1)NC(=O)OCc1ccccc1` (stereo not drawn), the IC50 was 300 µM.
Regarding `CC(C)CC(NC(=O)OCc1ccccc1)C(=O)NC(Cc1ccccc1)C(=O)C(F)(F)C(=O)NCc1ccccc1` (stereo not drawn), the 50% inhibitory concentration (IC50) was 750 µM.
For `O=C(NC(Cc1cccc2ccccc12)C(=O)C(F)(F)C(=O)NCc1ccccc1)OCc1ccccc1` (stereo not drawn), the Ki was greater than 1000 µM.
As for `C[Si](C)(C)CNC(=O)C(F)(F)C(=O)C(Cc1ccccc1)NC(=O)OCc1ccccc1` (stereo not drawn), the Ki was determined as 0.6 µM.
